Assay results: PubChem BioAssay (NCI)
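How tested: cells in 96-well plates exposed to compound for 48 hours at five concentrations. At the TGI there is no net growth.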

Experiments:
Assay in all cases: NCI tumour cell line growth inhibition, 48 h
K-562 leukemia = tested on: K-562 leukemia
NCI-H23 lung = tested on: NCI-H23 lung
UACC-257 melanoma = tested on: UACC-257 melanoma
M14 melanoma = tested on: M14 melanoma
SNB-19 CNS = tested on: SNB-19 CNS
SK-OV-3 ovarian = tested on: SK-OV-3 ovarian
CCRF-CEM leukemia = tested on: CCRF-CEM leukemia
IGROV1 ovarian = tested on: IGROV1 ovarian
ACHN renal = tested on: ACHN renal
SF-539 CNS = tested on: SF-539 CNS
TK-10 renal = tested on: TK-10 renal
MOLT-4 leukemia = tested on: MOLT-4 leukemia
OVCAR-4 ovarian = tested on: OVCAR-4 ovarian
PC-3 prostate = tested on: PC-3 prostate
EKVX NSCLC = tested on: EKVX NSCLC
HS 578T breast = tested on: HS 578T breast
SR leukemia = tested on: SR leukemia

Row | Compound | TGI (K-562 leukemia) | TGI (NCI-H23 lung) | TGI (UACC-257 melanoma) | TGI (M14 melanoma) | TGI (SNB-19 CNS) | TGI (SK-OV-3 ovarian) | TGI (CCRF-CEM leukemia) | TGI (IGROV1 ovarian) | TGI (ACHN renal) | TGI (SF-539 CNS) | TGI (TK-10 renal) | TGI (MOLT-4 leukemia) | TGI (OVCAR-4 ovarian) | TGI (PC-3 prostate) | TGI (EKVX NSCLC) | TGI (HS 578T breast) | TGI (SR leukemia)
1 | CC(C)(C)C(=O)OC12/C(=N/O)CCCCCC1c1ccccc12 (stereo not drawn) | 55.4 µM | 31.3 µM | 28.5 µM | 31.2 µM | 31.1 µM | 33.6 µM | 64 µM | 29.6 µM | 31.8 µM | 39 µM | 30.1 µM | 34.4 µM | 33 µM |  |  |  | 
2 | C/C=C/C1OC(O)(C(C)C(O)[C@H](C)C2OC(=O)/C(OC)=C/C(C)=C/[C@@H](C)[C@@H](O)[C@@H](C)C(O)C(C)C/C(C)=C/C=C/C2OC)C[C@@H](OC2CC(O)C(OC(N)=O)C(C)O2)C1C (stereo partly drawn) |  | 15.3 µM | < 0.01 µM | < 0.01 µM | 10.5 µM | > 43.4 µM |  | 12.9 µM | 12.1 µM | < 0.01 µM | 1.78 µM | < 0.01 µM | 18.9 µM | 0.625 µM | 8.37 µM | 27.1 µM | 
3 | CN1C(=O)C(=O)c2cc3c(c4c2c1cc1ccccc14)OCO3 | > 100 µM | > 100 µM | > 100 µM | > 100 µM | > 100 µM | > 100 µM | > 100 µM | > 100 µM | > 100 µM | > 100 µM | > 100 µM | 93.4 µM | > 100 µM |  | > 100 µM |  | 54.8 µM
4 | O=CC12C3CCC1C2C(=O)C3 (stereo not drawn) | > 100 µM | > 100 µM | > 100 µM | > 100 µM | > 100 µM | > 100 µM | > 100 µM | > 100 µM | > 100 µM | > 100 µM | > 100 µM | > 100 µM | > 100 µM | > 100 µM | > 100 µM |  | > 100 µM
5 | N#C/C(=C1\SC(N=Nc2ccccc2)C(=O)N1c1ccccc1)c1nc2ccccc2[nH]1 (stereo not drawn) | > 100 µM | > 100 µM | > 100 µM | > 100 µM | > 100 µM | > 100 µM | > 100 µM | > 100 µM | > 100 µM | 64.4 µM | > 100 µM | > 100 µM | > 100 µM |  | > 100 µM |  | 
6 | Cc1csc(/N=C\c2c(O)c3ccccc3oc2=O)n1 | > 100 µM | 33 µM | > 100 µM | > 100 µM | > 100 µM | 45.6 µM | > 100 µM | > 100 µM | > 100 µM | > 100 µM | 77.8 µM | > 100 µM | > 100 µM | > 100 µM | 99.3 µM | 94.5 µM | 
7 | CCNC(=O)c1c(O)c2ccccc2[nH]c1=O | > 100 µM | > 100 µM | > 100 µM |  | > 100 µM |  | > 100 µM | > 100 µM | > 100 µM | > 100 µM | > 100 µM | > 100 µM | > 100 µM | > 100 µM | > 100 µM | > 100 µM | > 100 µM
8 | c1csc(C[N+]23CN4CN(CN(C4)C2)C3)c1 | 48.8 µM | > 100 µM | > 100 µM | 32.2 µM | > 100 µM |  | 44.9 µM | 70.2 µM | > 100 µM | > 100 µM | 79.5 µM | 44.6 µM | 49 µM |  |  |  | 35.9 µM
9 | CC(C)C1=CC23CCC4C(C)(C(=O)O)CCCC4(C)C2CC1C1C(=O)N(c2ccccc2)C(=O)C13 (stereo not drawn) | > 100 µM | > 100 µM | 84.2 µM | > 100 µM | > 100 µM | > 100 µM | > 100 µM | > 100 µM | > 100 µM | > 100 µM | > 100 µM | > 100 µM | > 100 µM |  |  |  | > 100 µM
10 | CC(C)C(N)=O | > 5000 µM | > 5000 µM | > 5000 µM | > 5000 µM |  | > 5000 µM | > 5000 µM | > 5000 µM | > 5000 µM | > 5000 µM | > 5000 µM | > 5000 µM | > 5000 µM |  |  |  | > 5000 µM
11 | Cc1cc(=O)oc2c(C)c(OCCCOc3ccc4c(C)cc(=O)oc4c3C)ccc12 | > 100 µM | > 100 µM | > 100 µM | > 100 µM | > 100 µM | > 100 µM | > 100 µM | > 100 µM |  | > 100 µM | > 100 µM | > 100 µM |  |  | > 100 µM |  | > 100 µM
12 | O=C1CCCCCCCCCCC1CN1CCCCC1 (stereo not drawn) | > 100 µM | > 100 µM | > 100 µM |  | > 100 µM |  | > 100 µM | > 100 µM | > 100 µM |  | > 100 µM | > 100 µM | > 100 µM |  | > 100 µM |  | > 100 µM
13 | Cc1c(C(=O)/C=C/c2ccc(N(C)C)cc2)c(=O)n(-c2ccccc2)n1C |  | > 100 µM | > 100 µM |  | > 100 µM | > 100 µM | > 100 µM | > 100 µM | > 100 µM | > 100 µM | > 100 µM | > 100 µM |  |  | > 100 µM |  | 
14 | Cc1ccc2oc(=O)c(C(=O)Nc3nc(C45CC6CC(CC(C6)C4)C5)cs3)cc2c1 | > 100 µM | > 100 µM | > 100 µM |  | > 100 µM |  | > 100 µM | > 100 µM | > 100 µM | > 100 µM |  | > 100 µM | > 100 µM | > 100 µM | > 100 µM | > 100 µM | > 100 µM
